From ChEMBL document CHEMBL6182943, “Identification of 4'-Thiouridine as an Orally Available Antiviral Agent Targeting Both RdRp and NiRAN Functions of SARS-CoV-2 Nsp12” (J Med Chem, 2025)

Assays:
rhinovirus B14 = assay: Antiviral activity against Human rhinovirus B14 infected in human H1-HeLa cells incubated for 72 hrs; assay type: functional, organism-based; conditions: Rhinovirus B
[1] = Selectivity index, ratio of CC50 for cytotoxicity against human H1-HeLa cells to EC50 for antiviral activity against Human rhinovirus B14 infected in human H1-HeLa cells; assay type: toxicity, cell-based; conditions: read-out: Ratio CC50/EC50
[2] = Cytotoxicity against human H1-HeLa cells assessed as reduction in cell viability incubated for 72 hrs; assay type: toxicity, cell-based
[3] = Selectivity index, ratio of CC50 for cytotoxicity against MDCK cells to EC50 for antiviral activity against Influenza A virus A/Hong Kong/8/68 (H3N2) infected in MDCK cells assessed as reduction in virus-induced cytopathic effect; assay type: toxicity, cell-based; conditions: dog, read-out: Ratio CC50/EC50
Influenza B virus = assay: Antiviral activity against Influenza B virus B/Lee/40 infected in MDCK cells assessed as reduction in virus-induced cytopathic effect incubated for 3 days in presence of TPCK-treated trypsin by MTT assay; assay type: functional, organism-based; conditions: B/Lee/40, MDCK, 72 h
[4] = Cytotoxicity against MDCK cells assessed as reduction in cell viability incubated for 3 days by MTT assay; assay type: toxicity, cell-based, Canis lupus familiaris; conditions: dog, time 3 day
[5] = Selectivity index, ratio of CC50 for cytotoxicity against MDCK cells to EC50 for antiviral activity against Influenza A virus A/Puerto Rico/8/34 (H1N1) infected in MDCK cells assessed as reduction in virus-induced cytopathic effect; assay type: toxicity, cell-based; conditions: dog, read-out: Ratio CC50/EC50
Influenza A virus = assay: Antiviral activity against Influenza A virus A/Hong Kong/8/68 (H3N2) infected in MDCK cells assessed as reduction in virus-induced cytopathic effect incubated for 3 days in presence of TPCK-treated trypsin by MTT assay; assay type: functional, organism-based; conditions: 72 h
[6] = Selectivity index, ratio of CC50 for cytotoxicity against golden hamster BHK-21 cells to EC50 for antiviral activity against Dengue virus 2 infected in BHK-21 cells transfected with Renilla luciferase tagged viral subgenomic replicon; assay type: toxicity, cell-based; conditions: read-out: Ratio CC50/EC50
dengue virus type 2 = assay: Antiviral activity against Dengue virus 2 infected in BHK-21 cells transfected with Renilla luciferase tagged viral subgenomic replicon incubated for 48 hrs by luciferase based assay; assay type: functional, organism-based; conditions: BHK-21, 48 h
[7] = Selectivity index, ratio of CC50 for cytotoxicity against MDCK cells to EC50 for antiviral activity against Influenza B virus B/Lee/40 infected in MDCK cells assessed as reduction in virus-induced cytopathic effect; assay type: toxicity, cell-based; conditions: dog, read-out: Ratio CC50/EC50
Influenza A virus (H1N1) = assay: Antiviral activity against Influenza A virus A/Puerto Rico/8/34 (H1N1) infected in MDCK cells assessed as reduction in virus-induced cytopathic effect incubated for 3 days in presence of TPCK-treated trypsin by MTT assay; assay type: functional, organism-based; conditions: 72 h
[8] = Cytotoxicity against golden hamster BHK-21 cells assessed as reduction in cell viability by MTT assay; assay type: toxicity, cell-based, Mesocricetus auratus

| SMILES | EC50 (rhinovirus B14) | selectivity ratio [1] | CC50 at 72 h [2] | selectivity ratio [3] | EC50 (Influenza B virus) | CC50 at 72 h [4] | selectivity ratio [5] | EC50 (Influenza A virus) | selectivity ratio [6] | EC50 (dengue virus type 2) | selectivity ratio [7] | EC50 (Influenza A virus (H1N1)) | CC50 [8] |
| --- | --- | --- | --- | --- | --- | --- | --- | --- | --- | --- | --- | --- | --- |
| CCOC(=O)/C=C/[C@H](C[C@@H]1CCNC1=O)NC(=O)[C@@H](CC(=O)[C@@H](NC(=O)c1cc(C)on1)C(C)C)Cc1ccc(F)cc1 | 0.57 µM | > 176 | > 100 µM | – | – | – | – | – | – | – | – | – | – |
| NC(=O)c1ncn([C@@H]2O[C@H](CO)[C@@H](O)[C@H]2O)n1 [RIBAVIRIN] | – | – | – | > 5.82 | 15.7 µM | > 100 µM | > 5.77 | 17.2 µM | > 28.8 | 3.47 µM | > 6.39 | 17.3 µM | > 100 µM |
